Reference: patent publication US20220249441A1, “Homodimeric Tobramycin Adjuvant Repurposes Novobiocin as an Effective Antibacterial Agent Against Gram-Negative Bacteria” (priority 2019, published 2022)
In brackets after ≈: the same amount, converted by molar mass. Read-outs that look alike come from different tables or passages of the source.

Legend:
P. aeruginosa = assay: Checkerboard assay (antibiotic + adjuvant combination MIC); type: cell-based, Pseudomonas aeruginosa; settings: for MIC of Novobiocin + adjuvant (7.1 μM): PMBN or 1 at 7.1 μM
Procedure: (§1) Antimicrobial Susceptibility Assay. The in vitro antimicrobial activity of all compounds/antibiotics against a panel of bacteria was evaluated by microbroth dilution method in accordance with the Clinical and Laboratory Standards Institute (CLSI) guidelines (using ATCC strains as quality control strains) (54). Overnight grown bacterial cultures were diluted in saline to achieve a 0.5 McFarland turbidity, followed by 1:50 dilution in Mueller-Hinton broth (MHB) for inoculation to a final concentration of approximately 5×10^5 CFU/mL. […] The lowest concentration that prevented the visible growth of bacteria was defined as the MIC for each antimicrobial agent. The broth with or without bacterial cells was used as positive or negative control, respectively.
(§2) Checkerboard Assay. Combination studies with different antibiotics were performed in 96-well plates as previously described (19). Briefly, the antibiotic of interest was serially diluted in MHB along the abscissa while the adjuvant (tobramycin homodimer) was serially diluted in MHB along the ordinate. This creates a 10×7 matrices wherein each well consists of a combination of different antibiotic and adjuvant concentrations. Overnight grown bacterial cultures were diluted in saline to achieve a 0.5 McFarland turbidity, followed by 1:50 dilution in Mueller-Hinton broth (MHB) for inoculation to a final concentration of approximately 5×10^5 CFU/mL. […] MIC was recorded as wells with the lowest concentration of drugs with no bacterial growth. The fractional inhibitory concentration (FIC) for each antibiotic was calculated by dividing the MIC of the antibiotic in the presence of adjuvant by the MIC of the antibiotic alone. Similarly, the FIC of adjuvant was calculated by dividing the MIC of the adjuvant in the presence of antibiotic by the MIC of the adjuvant alone. FIC index is the sum of both FICs. FIC indices of ≤0.5 were deemed synergistic; >0.5-4, no interaction; and >4, antagonistic.

[1] = test system: P. aeruginosa PAO1 and efflux deficient mutants, MDR/XDR isolates; assay: microbe, parasite or virus in culture; type: cell-based, Pseudomonas aeruginosa
Procedure: Antimicrobial Susceptibility Assay. The in vitro antimicrobial activity of all compounds/antibiotics against a panel of bacteria was evaluated by microbroth dilution method in accordance with the Clinical and Laboratory Standards Institute (CLSI) guidelines (using ATCC strains as quality control strains) (54). […] The broth with or without bacterial cells was used as positive or negative control, respectively.

E. cloacae = assay: Checkerboard assay (antibiotic + adjuvant combination MIC); type: cell-based, Enterobacter cloacae; settings: EC 118568; PMBN or 1 at 7.1 μM
Procedure: as §1, §2

A. baumannii = assay: as above; type: cell-based, Acinetobacter baumannii
Procedure: as §1, §2

K. pneumoniae = assay: as above; type: cell-based, Klebsiella pneumoniae; settings: KP 113254; PMBN or 1 at 7.1 μM
Procedure: as §1, §2

E. coli = assay: as above; type: cell-based, Escherichia coli; settings: PMBN or 1 at 7.1 μM
Procedure: as §1, §2

[2] = P. aeruginosa PAO1, compound at 8 μM
[3] = PA 262-101856, compound at 8 μM
[4] = PA 264-104354, compound at 8 μM
[5] = PA O200 (efflux-deficient), compound at 8 μM
[6] = PA O750 (efflux-deficient), compound at 8 μM

Compound: NC[C@H]1O[C@H](O[C@H]2[C@H](OCCCCc3cn(CCCCO[C@@H]4[C@@H](O)[C@H](N)C[C@H](N)[C@H]4O[C@H]4O[C@H](CN)[C@@H](O)C[C@H]4N)nn3)[C@@H](O)[C@H](N)C[C@@H]2N)[C@H](N)C[C@@H]1O [Compound 26, Nebramine Homodimer]
- MIC of CAZ in the presence of compound (P. aeruginosa): 128 µg/mL
- MIC of Aztreonam + compound (P. aeruginosa; [2]): 1 µg/mL
- MIC of Ceftazidime + compound (P. aeruginosa; [2]): 0.5 µg/mL
- MIC of Imipenem + compound (P. aeruginosa; [2]): 2 µg/mL
- MIC of Piperacillin + compound (P. aeruginosa; [2]): 8 µg/mL
- MIC of ATM in the presence of compound (P. aeruginosa; PA 259-96918, compound at 8 μM): 8 µg/mL
- MIC of IPM in the presence of compound (P. aeruginosa; PA 259-96918, compound at 8 μM): 64 µg/mL
- MIC of ATM in the presence of compound (P. aeruginosa; PA 260-97103, compound at 8 μM): 16 µg/mL
- MIC of CAZ in the presence of compound (P. aeruginosa; PA 260-97103, compound at 8 μM): 16 µg/mL
- MIC of IPM in the presence of compound (P. aeruginosa; PA 260-97103, compound at 8 μM): 16 µg/mL
- MIC of ATM in the presence of compound (P. aeruginosa; [3]): 16 µg/mL
- MIC of CAZ in the presence of compound (P. aeruginosa; [3]): 16 µg/mL
- MIC of IPM in the presence of compound (P. aeruginosa; [3]): 4 µg/mL
- MIC of ATM in the presence of compound (P. aeruginosa; [4]): 8 µg/mL
- MIC of CAZ in the presence of compound (P. aeruginosa; [4]): 32 µg/mL
- MIC of IPM in the presence of compound (P. aeruginosa; [4]): 8 µg/mL
- MIC of ATM in the presence of compound (P. aeruginosa; PA 86052, compound at 8 μM): 32 µg/mL
- MIC of CAZ in the presence of compound (P. aeruginosa; PA 86052, compound at 8 μM): 64 µg/mL
- MIC of IPM in the presence of compound (P. aeruginosa; PA 86052, compound at 8 μM): 16 µg/mL
- MIC of ATM in the presence of compound (P. aeruginosa; PA 88949, compound at 8 μM): 16 µg/mL
- MIC of CAZ in the presence of compound (P. aeruginosa; PA 88949, compound at 8 μM): 64 µg/mL
- MIC of IPM in the presence of compound (P. aeruginosa; PA 88949, compound at 8 μM): 32 µg/mL
- MIC of ATM in the presence of compound (P. aeruginosa; PA 91433, compound at 8 μM): 2 µg/mL
- MIC of CAZ in the presence of compound (P. aeruginosa; PA 91433, compound at 8 μM): 0.5 µg/mL
- MIC of IPM in the presence of compound (P. aeruginosa; PA 91433, compound at 8 μM): 8 µg/mL
- MIC of ATM in the presence of compound (P. aeruginosa; PA 100036, compound at 8 μM): 4 µg/mL
- MIC of CAZ in the presence of compound (P. aeruginosa; PA 100036, compound at 8 μM): 4 µg/mL
- MIC of IPM in the presence of compound (P. aeruginosa; PA 100036, compound at 8 μM): 4 µg/mL
- MIC of ATM in the presence of compound (P. aeruginosa; PA 101243, compound at 8 μM): 8 µg/mL
- MIC of CAZ in the presence of compound (P. aeruginosa; PA 101243, compound at 8 μM): 32 µg/mL
- MIC of IPM in the presence of compound (P. aeruginosa; PA 101243, compound at 8 μM): 8 µg/mL
- MIC of ATM in the presence of compound (P. aeruginosa; PA 101885, compound at 8 μM): 4 µg/mL
- MIC of CAZ in the presence of compound (P. aeruginosa; PA 101885, compound at 8 μM): 1 µg/mL
- MIC of IPM in the presence of compound (P. aeruginosa; PA 101885, compound at 8 μM): 4 µg/mL
- MIC of ATM in the presence of compound (P. aeruginosa; PA 107092, compound at 8 μM): 32 µg/mL
- MIC of IPM in the presence of compound (P. aeruginosa; PA 107092, compound at 8 μM): 32 µg/mL
- MIC of ATM in the presence of compound (P. aeruginosa; PA 108590, compound at 8 μM): 16 µg/mL
- MIC of CAZ in the presence of compound (P. aeruginosa; PA 108590, compound at 8 μM): 32 µg/mL
- MIC of IPM in the presence of compound (P. aeruginosa; PA 108590, compound at 8 μM): 8 µg/mL
- MIC of ATM in the presence of compound (P. aeruginosa; PA 109084, compound at 8 μM): 16 µg/mL
- MIC of CAZ in the presence of compound (P. aeruginosa; PA 109084, compound at 8 μM): 32 µg/mL
- MIC of IPM in the presence of compound (P. aeruginosa; PA 109084, compound at 8 μM): 16 µg/mL
- MIC of ATM in the presence of compound (P. aeruginosa; PA 114228, compound at 8 μM): 16 µg/mL
- MIC of CAZ in the presence of compound (P. aeruginosa; PA 114228, compound at 8 μM): 1 µg/mL
- MIC of IPM in the presence of compound (P. aeruginosa; PA 114228, compound at 8 μM): 4 µg/mL
- MIC of ATM in the presence of compound (P. aeruginosa; [5]): 0.06 µg/mL
- MIC of CAZ in the presence of compound (P. aeruginosa; [5]): 0.25 µg/mL
- MIC of IPM in the presence of compound (P. aeruginosa; [5]): 1 µg/mL
- MIC of ATM in the presence of compound (P. aeruginosa; [6]): 0.25 µg/mL
- MIC of CAZ in the presence of compound (P. aeruginosa; [6]): 0.13 µg/mL
- MIC of IPM in the presence of compound (P. aeruginosa; [6]): 2 µg/mL
- MIC of ATM in the presence of compound (P. aeruginosa; PAO1, compound at 8 μM): 1 µg/mL
- MIC of CAZ in the presence of compound (P. aeruginosa; PAO1, compound at 8 μM): 0.5 µg/mL
- MIC of IPM in the presence of compound (P. aeruginosa; PAO1, compound at 8 μM): 2 µg/mL
- MIC ([1]; PAO1 (wild-type)): >128 µg/mL
- MIC ([1]; PAO200 (first column so headed)): >128 µg/mL
- MIC ([1]; PAO200 (second column so headed)): 128 µg/mL (≈ 162 µM)

Compound: polymyxin B nonapeptide [PMBN, reference compound]
- MIC of Novobiocin + adjuvant (7.1 μM) (E. cloacae): 512 µg/mL
- MIC of Novobiocin + adjuvant (7.1 μM) (P. aeruginosa; PA 91433): 4 µg/mL
- MIC of Novobiocin + adjuvant (7.1 μM) (P. aeruginosa; PA 101243): 8 µg/mL
- MIC of Novobiocin + adjuvant (7.1 μM) (P. aeruginosa; PA 114228): 128 µg/mL
- MIC of Novobiocin + adjuvant (7.1 μM) (P. aeruginosa; PAO1): 4 µg/mL
- MIC of Novobiocin + adjuvant (7.1 μM) (A. baumannii; AB 92247, PMBN or 1 at 7.1 μM): 1 µg/mL
- potentiation of novobiocin (A. baumannii; colistin-resistant mutant B of A. baumannii ATCC 17978): did not potentiate
- MIC of Novobiocin + adjuvant (7.1 μM) (K. pneumoniae): 64 µg/mL
- MIC of Novobiocin + adjuvant (7.1 μM) (E. coli; E. coli 94393): 4 µg/mL
- MIC of Novobiocin + adjuvant (7.1 μM) (E. coli; E. coli 94474): 32 µg/mL
